Experiments:
HOP-62 = experiment: NCI cytotoxicity screen, Non-Small Cell Lung Cancer panel; assay type: cell-based
Method: (§1) Cytotoxicity was performed at National Cancer Institute (NCI), Bethesda, USA as per their protocols.

NCI-H460 = experiment: as above; assay type: cell-based
Method: as §1

EXVX = experiment: as above; assay type: cell-based; details: Homo sapiens
Method: as §1

A549/ATCC = experiment: as above; assay type: cell-based
Method: as §1

HOP-92 = experiment: as above; assay type: cell-based
Method: as §1

OVCAR-3 = experiment: NCI cytotoxicity screen, Ovarian Cancer panel; assay type: cell-based, human
Method: as §1

SR = experiment: NCI cytotoxicity screen, Leukemia panel; assay type: cell-based
Method: as §1

HL-60(TB) = experiment: NCI cytotoxicity screen, Leukemia panel; assay type: cell-based
Method: as §1

K-562 = experiment: NCI cytotoxicity screen, Leukemia panel; assay type: cell-based
Method: as §1

CCRF-CEM = experiment: NCI cytotoxicity screen, Leukemia panel; assay type: cell-based
Method: as §1

MOLT-4 = experiment: NCI cytotoxicity screen, Leukemia panel; assay type: cell-based; details: MOLT-4
Method: as §1

RPMI-8226 = experiment: NCI cytotoxicity screen, Leukemia panel; assay type: cell-based; details: for GI50: RPMI-8226, RPMI-8226
Method: as §1

HCT-15 = experiment: NCI cytotoxicity screen, Colon Cancer panel; assay type: cell-based; details: Homo sapiens
Method: as §1

COLO 205 = experiment: NCI cytotoxicity screen, Colon Cancer panel; assay type: cell-based
Method: as §1

HCT-116 = experiment: NCI cytotoxicity screen, Colon Cancer panel; assay type: cell-based; details: Homo sapiens, five dose 0.01–100 µM
Method: as §1

HT29 = experiment: NCI cytotoxicity screen, Colon Cancer panel; assay type: cell-based
Method: as §1

DU-145 = experiment: NCI cytotoxicity screen, Prostate Cancer panel; assay type: cell-based, human
Method: as §1

PC-3 = experiment: NCI cytotoxicity screen, Prostate Cancer panel; assay type: cell-based, human; details: five dose 0.01–100 µM
Method: as §1

[1] = Experimental log P, shake-flask method; assay type: physicochemical; details: n-octanol/phosphate buffer pH 7.4, read-out: Exp. Log P
Method in brief: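 Shake-flask partitioning between n-octanol and phosphate buffer pH 7.4, shaken 50 min, then centrifuged 35 min at 2500 rpm. Buffer-phase absorbance at each compound's λmax measured before and after partitioning. P calculated from absorbance drop and phase volume ratio.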

MDA-MB-231/ATCC = experiment: NCI cytotoxicity screen, Breast Cancer panel; assay type: cell-based
Method: as §1

HS 578 T = experiment: NCI cytotoxicity screen, Breast Cancer panel; assay type: cell-based
Method: as §1

T-47D = experiment: NCI cytotoxicity screen, Breast Cancer panel; assay type: cell-based
Method: as §1

MCF7 = experiment: NCI cytotoxicity screen, Breast Cancer panel; assay type: cell-based
Method: as §1

BT-549 = experiment: NCI cytotoxicity screen, Breast Cancer panel; assay type: cell-based
Method: as §1

MDA-MB-468 = experiment: NCI cytotoxicity screen, Breast Cancer panel; assay type: cell-based; details: Homo sapiens, five dose 0.01–100 µM
Method: as §1

NCI-H23 = experiment: NCI cytotoxicity screen, Non-Small Cell Lung Cancer panel; assay type: cell-based, human; details: five dose 0.01–100 µM
Method: as §1

NCI-H322M = experiment: as above; assay type: cell-based, human
Method: as §1

NCI-522 = experiment: as above; assay type: cell-based, human
Method: as §1

NCI-H226 = experiment: as above; assay type: cell-based, human
Method: as §1

HCC-2998 = experiment: NCI cytotoxicity screen, Colon Cancer panel; assay type: cell-based, human
Method: as §1

ACHN = experiment: NCI cytotoxicity screen, Renal Cancer panel; assay type: cell-based
Method: as §1

CAKI-1 = experiment: NCI cytotoxicity screen, Renal Cancer panel; assay type: cell-based
Method: as §1

SN12C = experiment: NCI cytotoxicity screen, Renal Cancer panel; assay type: cell-based
Method: as §1

UO-31 = experiment: NCI cytotoxicity screen, Renal Cancer panel; assay type: cell-based
Method: as §1

RXF 393 = experiment: NCI cytotoxicity screen, Renal Cancer panel; assay type: cell-based
Method: as §1

A498 = experiment: NCI cytotoxicity screen, Renal Cancer panel; assay type: cell-based
Method: as §1

OVCAR-4 = experiment: NCI cytotoxicity screen, Ovarian Cancer panel; assay type: cell-based
Method: as §1

OVCAR-8 = experiment: NCI cytotoxicity screen, Ovarian Cancer panel; assay type: cell-based
Method: as §1

NCI/ADR-RES = experiment: NCI cytotoxicity screen, Ovarian Cancer panel; assay type: cell-based
Method: as §1

OVCAR-5 = experiment: NCI cytotoxicity screen, Ovarian Cancer panel; assay type: cell-based; details: Homo sapiens
Method: as §1

SK-OV-3 = experiment: NCI cytotoxicity screen, Ovarian Cancer panel; assay type: cell-based
Method: as §1

IGROV1 = experiment: NCI cytotoxicity screen, Ovarian Cancer panel; assay type: cell-based; details: Homo sapiens, IGROV-1, five dose 0.01–100 µM
Method: as §1

[2] = Homo sapiens, five dose 0.01–100 µM, read-out: LC50 (the source's name)
[3] = Homo sapiens, five dose 0.01–100 µM
[4] = Homo sapiens, read-out: Percent growth inhibition

## c1cn2cc(-c3ccc4ncn(C5CCCCC5)c4c3)nc(-c3ccc4c(c3)ncn4C3CCCCC3)c2n1 [Compound 31, 8-(1-cyclohexyl-1H-benzo[d]imidazol-5-yl)-6-(1-cyclohexyl-1H-benzo[d]imidazol-6-yl)imidazo[1,2-a]pyrazine]
HOP-62; Homo sapiens
  GI50: 2000 nM
HOP-62; [2]
  CC50: 6900 nM
HOP-62; five dose 0.01–100 µM
  TGI: 3720 nM
NCI-H460; Homo sapiens
  GI50: 1980 nM
NCI-H460; [2]
  CC50: 8160 nM
NCI-H460; five dose 0.01–100 µM
  TGI: 4020 nM
EXVX
  GI50: 1970 nM
A549/ATCC; A549/ATCC, five dose 0.01–100 µM
  TGI: 3540 nM
A549/ATCC; Homo sapiens, A549
  GI50: 1940 nM
A549/ATCC; Homo sapiens, A549/ATCC, five dose 0.01–100 µM, read-out: LC50 (the source's name)
  CC50: 6460 nM
HOP-92; Homo sapiens
  GI50: 1540 nM
HOP-92; [3]
  LC50: 6730 nM
HOP-92; five dose 0.01–100 µM
  TGI: 3220 nM
OVCAR-3; Homo sapiens, OVCAR-3
  GI50: 1830 nM
OVCAR-3; Homo sapiens, OVCAR-3, read-out: LC50
  CC50: 6200 nM
OVCAR-3; OVCAR-3, five dose 0.01–100 µM
  TGI: 3360 nM
SR; Homo sapiens
  GI50: 2870 nM
SR; [2]
  CC50: > 1000 nM
SR; [4]
  inhibition at 10 µM: 97.5%
SR; five dose 0.01–100 µM
  TGI: >1000 nM
HL-60(TB); HL-60(TB), five dose 0.01–100 µM
  TGI: 4570 nM
HL-60(TB); Homo sapiens, HL-60
  GI50: 1840 nM
HL-60(TB); Homo sapiens, HL-60(TB), five dose 0.01–100 µM, read-out: LC50 (the source's name)
  CC50: > 1000 nM
K-562; Homo sapiens, K562
  GI50: 2570 nM
K-562; Homo sapiens, K562, K-562, five dose 0.01–100 µM, read-out: LC50 (the source's name)
  CC50: > 1000 nM
K-562; K-562, five dose 0.01–100 µM
  TGI: >1000 nM
CCRF-CEM; Homo sapiens
  GI50: 1690 nM
CCRF-CEM; [2]
  CC50: > 1000 nM
CCRF-CEM; [4]
  inhibition at 10 µM: 95.7%
CCRF-CEM; five dose 0.01–100 µM
  TGI: 6080 nM
MOLT-4; Homo sapiens
  GI50: 1640 nM
MOLT-4; [2]
  CC50: > 1000 nM
MOLT-4; five dose 0.01–100 µM
  TGI: 5220 nM
RPMI-8226; Homo sapiens, five dose
  GI50: 806 nM
RPMI-8226; [3]
  GI50: 800 nM
RPMI-8226; Homo sapiens, RPMI-8226, five dose 0.01–100 µM, read-out: LC50 (the source's name)
  CC50: > 1000 nM
RPMI-8226; RPMI-8226, five dose 0.01–100 µM
  TGI: 3990 nM
HCT-15
  GI50: 2070 nM
COLO 205; Homo sapiens
  GI50: 1930 nM
COLO 205; [3]
  LC50: 7440 nM
COLO 205; five dose 0.01–100 µM
  TGI: 3790 nM
HCT-116
  GI50: 1700 nM
HT29; HT29, five dose 0.01–100 µM
  TGI: 5200 nM
HT29; Homo sapiens, HT-29
  GI50: 2440 nM
HT29; Homo sapiens, HT-29, HT29, five dose 0.01–100 µM, read-out: LC50 (the source's name)
  CC50: > 1000 nM
DU-145; Homo sapiens
  GI50: 1770 nM
DU-145; five dose 0.01–100 µM
  TGI: 3280 nM
PC-3; Homo sapiens
  GI50: 1700 nM
PC-3
  TGI: 3930 nM
[1]
  logP: 1.77
MDA-MB-231/ATCC; Homo sapiens, MDA-MB-231
  GI50: 1290 nM
MDA-MB-231/ATCC; Homo sapiens, MDA-MB-231/ATCC, five dose 0.01–100 µM, read-out: LC50 (the source's name)
  CC50: 7330 nM
MDA-MB-231/ATCC; MDA-MB-231/ATCC, five dose 0.01–100 µM
  TGI: 3080 nM
HS 578 T; HS 578 T, five dose 0.01–100 µM
  TGI: 6740 nM
HS 578 T; Homo sapiens, Hs-578T
  GI50: 2390 nM
HS 578 T; Homo sapiens, Hs-578T, read-out: Percent growth inhibition
  inhibition at 10 µM: 96.6%
HS 578 T; Homo sapiens, HS 578 T, five dose 0.01–100 µM, read-out: LC50 (the source's name)
  CC50: > 1000 nM
T-47D; Homo sapiens, T47D
  GI50: 1900 nM
T-47D; Homo sapiens, T47D, T-47D, five dose 0.01–100 µM, read-out: LC50 (the source's name)
  CC50: > 1000 nM
T-47D; T-47D, five dose 0.01–100 µM
  TGI: 4690 nM
MCF7; Homo sapiens
  GI50: 1800 nM
MCF7; [2]
  CC50: > 1000 nM
MCF7; five dose 0.01–100 µM
  TGI: 4580 nM
BT-549; Homo sapiens
  GI50: 1940 nM
BT-549; [2]
  CC50: 6820 nM
BT-549; five dose 0.01–100 µM
  TGI: 3640 nM
MDA-MB-468
  GI50: 2320 nM
MDA-MB-468; read-out: LC50 (the source's name)
  CC50: > 1000 nM
NCI-H23; Homo sapiens
  GI50: 2010 nM
NCI-H23
  TGI: 4090 nM
NCI-H322M; Homo sapiens
  GI50: 1910 nM
NCI-H322M; Homo sapiens, single dose 10 µM, negative = lethal, read-out: Percent growth inhibition
  inhibition at 10 µM: 98.8%
NCI-H322M; five dose 0.01–100 µM
  TGI: 4140 nM
NCI-522; Homo sapiens
  GI50: 1740 nM
NCI-522; NCI-522, five dose 0.01–100 µM
  TGI: 3400 nM
NCI-H226; Homo sapiens
  GI50: 1690 nM
NCI-H226; five dose 0.01–100 µM
  TGI: 3790 nM
HCC-2998; HCC-2998, five dose 0.01–100 µM
  TGI: 3460 nM
HCC-2998; Homo sapiens, HCC 2998
  GI50: 1810 nM
ACHN; Homo sapiens
  GI50: 1680 nM
ACHN; [2]
  CC50: 5610 nM
ACHN; five dose 0.01–100 µM
  TGI: 3070 nM
CAKI-1; CAKI-1, five dose 0.01–100 µM
  TGI: 2950 nM
CAKI-1; Homo sapiens, CAKI-1
  GI50: 1460 nM
CAKI-1; Homo sapiens, CAKI-1, read-out: Percent growth inhibition
  inhibition at 10 µM: 82.8%
CAKI-1; Homo sapiens, CAKI-1, five dose 0.01–100 µM, read-out: LC50 (the source's name)
  CC50: 5970 nM
SN12C; Homo sapiens
  GI50: 2050 nM
SN12C; [2]
  CC50: > 1000 nM
SN12C; five dose 0.01–100 µM
  TGI: 4530 nM
UO-31; Homo sapiens
  GI50: 1490 nM
UO-31; [2]
  CC50: 5460 nM
UO-31; five dose 0.01–100 µM
  TGI: 2850 nM
RXF 393; Homo sapiens
  GI50: 1510 nM
RXF 393; [2]
  CC50: 5940 nM
RXF 393; five dose 0.01–100 µM
  TGI: 2990 nM
A498; Homo sapiens
  GI50: 1770 nM
A498; [2]
  CC50: 5850 nM
A498; five dose 0.01–100 µM
  TGI: 3220 nM
OVCAR-4; Homo sapiens, OVCAR-4
  GI50: 2170 nM
OVCAR-4; Homo sapiens, OVCAR-4, read-out: Percent growth inhibition
  inhibition at 10 µM: 97.2%
OVCAR-4; Homo sapiens, OVCAR-4, five dose 0.01–100 µM, read-out: LC50 (the source's name)
  CC50: > 1000 nM
OVCAR-4; OVCAR-4, five dose 0.01–100 µM
  TGI: 6300 nM
OVCAR-8; Homo sapiens
  GI50: 2550 nM
OVCAR-8; [2]
  CC50: > 1000 nM
OVCAR-8; five dose 0.01–100 µM
  TGI: 9490 nM
NCI/ADR-RES; Homo sapiens
  GI50: 2340 nM
NCI/ADR-RES; [2]
  CC50: > 1000 nM
NCI/ADR-RES; [4]
  inhibition at 10 µM: 98.9%
NCI/ADR-RES; five dose 0.01–100 µM
  TGI: 7330 nM
OVCAR-5
  GI50: 2430 nM
OVCAR-5; five dose 0.01–100 µM, read-out: LC50 (the source's name)
  CC50: > 1000 nM
SK-OV-3; Homo sapiens
  GI50: 2270 nM
SK-OV-3; [2]
  CC50: 7420 nM
SK-OV-3; five dose 0.01–100 µM
  TGI: 4100 nM
IGROV1
  GI50: 2040 nM

From PMC7162861, “Synthesis, cytotoxicity, pharmacokinetic profile, binding with DNA and BSA of new imidazo[1,2-a]pyrazine-benzo[d]imidazol-5-yl hybrids” (Scientific Reports, 2020)
